Data as given in patent US20080058373A1, “Compositions and Methods for Treating or Preventing Glaucoma or Progression Thereof” (priority 2006, published 2008).

How the values were obtained:
[1] = tested on: New Zealand White rabbits; assay: Intraocular pressure (IOP) in rabbits, topical dosing four times daily; type: in vivo; settings: 0.1% (Group A)
Protocol: Seventy-five rabbits underwent two weeks of IOP training to condition them for IOP measurement. IOP was determined for both eyes of each animal using a Medtronic Solan, Model 30 classic pneumatonometer. Proparacaine hydrochloride 0.5% (1 drop) was delivered to each eye prior to IOP measurement. A two-point diurnal curve was established: IOP was recorded on Monday, Wednesday, and Friday of each week, at 8 a.m. and 12 p.m., with a ±1 hour range for each of these times. The time of the measurements was recorded.
On Days 1-31, animals received daily topical doses of the appropriate test article into the right eye. Animals were dosed four times per day, with doses administered 2 hours apart. Doses were administered using a calibrated 50-μL pipette. The eyelids were held close for 10 seconds immediately following dosing. The time of each dose administration was recorded.
Intraocular pressure (“IOP”) was determined for both eyes of each animal on Days 3, 5, 10, 12, 16, 18, 22, 24, 26, 30, and 32. IOP was evaluated with a Medtronic Solan, Model 30 classic pneumatonometer. Proparacaine hydrochloride 0.5% (1 drop) was delivered to each eye prior to IOP measurement. IOP was measured on Monday, Wednesday, and Friday of each week. A two-point diurnal curve was established: IOP was recorded at 8 a.m. and 12 p.m. on Day 3, and at 8 a.m. and 2 p.m. on later days, with a ±1 hour range for each of these times. The time of the measurements was recorded.
Descriptive statistics were prepared for IOP data of each treatment group (left and right eyes separately) at each measurement interval. The statistics included the number of observations (“N”), mean, standard deviation (“STD”), and standard error (“SEM”). Statistical analyses were conducted on IOP results using Statistical Analysis Systems (SAS Institute, Inc., Cary, N.C., V8.0). Parameters were evaluated using analysis of variance/GLM Procedure followed by Tukey's Standardized Range Test (Tukey, 1985) for post hoc comparisons of group means. The level of significance was set at a probability of p<0.05 for all statistical procedures. Group IOP means were compared at each interval, with left and right eyes compared separately.

Prostaglandin E2 (PGE2) = Prostaglandin E2 (PGE2) measurement in aqueous humor, rabbit paracentesis model; type: in vivo; settings: 0.1% topical; second paracentesis; group mean
Protocol: Each rabbit was placed in a restraint device and tagged with the alphanumeric code. The formulations were instilled (50 μl) into the conjunctival sac of both eyes 180, 120, 90 and 30 min before the first paracentesis; then 15, 30, 90 min after the first paracentesis. To perform the first paracentesis the animals were anaesthetized by intravenous injection of 5 mg/kg Zoletil® (Virbac; 2.5 mg/kg tiletamine HCl and 2.5 mg/kg zolazepam HCl) and one drop of local anesthetic (Novesina®, Novartis) was administered to the eye. Anterior chamber paracentesis was performed with a 26 G needle attached to a tuberculin syringe; the needle was introduced into the anterior chamber through the cornea, taking care not to damage the tissues. Two hours after the first paracentesis, the animals were sacrificed with 0.4 ml Tanax® (Intervet International B.V.) and the second paracentesis was performed. About 100 μl of aqueous humor were removed at the second paracentesis. Aqueous humor was immediately split in four aliquots and stored at −80° C. until analysis. Then both eyes were enucleated and the iris-ciliary body was carefully excised, placed in polypropylene tubes, and stored at −80° C. until analysis.
For the quantitative determination of PGE2 in the aqueous humor we used the PGE2 Immunoassay kit (R&D Systems; Cat.No. KGE004; Lot.No. 240010). Eleven microliters or 16 μl of aqueous humor were diluted to 110 μl or 160 μl with the calibrator diluent solution provided with the kit. One hundred microliters of samples and of standards were load into a 96-well plate and recorded in a plate layout. Samples were treated following the assay procedure described in the kit. A microplate reader (GDV, Italy; model DV 990 B/V6) set at 450 nm (wavelength correction at 540 nm) was used for making the calibration and analyzing the samples.

C[C@@H]1C[C@H]2[C@@H]3CCC4=CC(=O)C=C[C@]4(C)[C@@]3(F)[C@@H](O)C[C@]2(C)[C@@]1(O)C(=O)CO [dexamethasone, reference compound]
Intraocular Pressure in Untreated Left Eyes (A.M. Readings), MEAN ([1]; Day 3): 24.3 mmHg | Intraocular Pressure in Untreated Left Eyes (A.M. Readings), MEAN ([1]; Day 5): 24.3 mmHg | Intraocular Pressure in Untreated Left Eyes (A.M. Readings), MEAN ([1]; Day 10): 26.9 mmHg | Intraocular Pressure in Untreated Left Eyes (A.M. Readings), MEAN ([1]; Day 12): 26.2 mmHg | Intraocular Pressure in Untreated Left Eyes (A.M. Readings), MEAN ([1]; Day 16): 25.0 mmHg | Intraocular Pressure in Untreated Left Eyes (A.M. Readings), MEAN ([1]; Day 18): 24.2 mmHg | Intraocular Pressure in Untreated Left Eyes (A.M. Readings), MEAN ([1]; Day 22): 25.0 mmHg | Intraocular Pressure in Untreated Left Eyes (A.M. Readings), MEAN ([1]; Day 24): 23.6 mmHg | Intraocular Pressure in Untreated Left Eyes (A.M. Readings), MEAN ([1]; Day 26): 23.7 mmHg | Intraocular Pressure in Untreated Left Eyes (A.M. Readings), MEAN ([1]; Day 30): 24.0 mmHg | Intraocular Pressure in Untreated Left Eyes (A.M. Readings), MEAN ([1]; Day 32): 25.5 mmHg | Intraocular Pressure in Untreated Left Eyes (A.M. Readings), MEAN ([1]; Pre-Study): 24.4 mmHg | Levels of PGE2 in aqueous humor, Mean (Prostaglandin E2 (PGE2)): 2.263 ng/mL
